Values after ≈ are worked out from the molar mass of the structure shown. Where two headings read alike, the source gives them in different places.
Experiments:
[1] = system: Staphylococcus epidermidis CCM 4418 (ATCC 12228); test: Antibacterial microdilution broth method, SE; format: cell-based; conditions: 24 h
[2] = system: Klebsiella pneumoniae CCM 4415 (ATCC 10031); test: Antibacterial microdilution broth method, KP; conditions: for MIC: Klebsiella pneumoniae; for MIC KP: read after 24 h of incubation
[3] = system: Aspergillus flavus CCM 8363; test: Antifungal microdilution broth method, AFla; format: cell-based
Method: 6. In vitro antifungal activity screening
Antifungal activity evaluation was performed using a microdilution broth method according to EUCAST instructions (The European Committee on Antimicrobial Susceptibility Testing) with slight modifications. Eight fungal strains (four yeast and four mould strains) were used for antifungal […]
and Trichophyton interdigitale CCM 8377 (ATCC 9533). Tested strains were purchased from the Czech Collection of Microorganisms (CCM, Brno, Czech Republic) or from the American Type Collection Cultures (ATCC, Manassas, VA, USA). Tested compounds were dissolved in DMSO and diluted in a twofold manner with RPMI 1640 medium, with glutamine and 2% glucose, buffered to pH 7.0 with MOPS (3-morpholinopropane-1-sulfonic acid). The final concentration of DMSO in the testing […]
Static incubation was performed in the dark and in humid atmosphere, at 35±2 °C, for 24 and 48 h (72 and 120 h for Trichophyton interdigitale respectively). Positive controls consisted of test microbe solely, while negative controls consisted of cultivation medium and DMSO. Visual inspection and metabolic activity indicator, Alamar Blue (ThermoFisher Scientific), were used for MIC endpoint evaluation. The internal quality standards, amphotericin B (Sigma-Aldrich) and voriconazole (Toronto research Chemicals, CA) were involved in assays (for MIC of standards see Table S5). All experiments were conducted in duplicates.
For the results to be valid, the difference in MIC for one compound determined from two parallel measurements must not be greater than one step on the dilution scale.

[4] = system: Mycobacterium aurum DSM 43999 (ATCC 23366); test: Microplate Alamar Blue Assay (MABA) microdilution, M. aurum; format: cell-based
[5] = system: Candida albicans CCM 8320 (ATCC 24433); test: Antifungal microdilution broth method, CA; format: cell-based
[6] = system: M. smegmatis DSM 43465 (ATCC 607); test: Microplate Alamar Blue Assay (MABA) microdilution, M. smegmatis; format: cell-based, Mycobacterium smegmatis
[7] = system: Candida tropicalis CCM 8264 (ATCC 750); test: Antifungal microdilution broth method, CT; format: cell-based
[8] = system: Aspergillus fumigatus ATCC 204305; test: Antifungal microdilution broth method, AF; format: cell-based
[9] = system: Mtb H37Ra ITM-M006710 (ATCC 9431); test: Microplate Alamar Blue Assay (MABA) microdilution, Mtb H37Ra; format: cell-based, Mycobacterium tuberculosis; conditions: for MIC: Mycobacterium tuberculosis
[10] = system: Trichophyton interdigitale CCM 8377 (ATCC 9533); test: Antifungal microdilution broth method, TI; format: cell-based
[11] = system: Candida krusei CCM 8271 (ATCC 6258); test: Antifungal microdilution broth method, CK; format: cell-based; conditions: Pichia kudriavzevii
[12] = system: Candida parapsilosis CCM 8260 (ATCC 22019); test: Antifungal microdilution broth method, CP; format: cell-based; conditions: Lodderomyces parapsilosis
[13] = system: Lichtheimia corymbifera CCM 8077; test: Antifungal microdilution broth method, LC; format: cell-based
[14] = CCM8363, read after 48 h (filamentous fungi), read-out: MIC AFla
[15] = Mycolicibacterium aurum, pH 6, read-out: MIC M. aurum µg/mL
[16] = Mycolicibacterium aurum, pH 6.6, read-out: MIC M. aurum
[17] = Mycolicibacterium smegmatis, pH 6, read-out: MIC M. smegmatis µg/mL
[18] = Mycolicibacterium smegmatis, pH 6.6, read-out: MIC M. smegmatis
[19] = ATCC204305, 48 h, read-out: MIC AF
[20] = pH 6.6, read-out: MIC Mtb H37Ra
[21] = pH 6, calculated from µg/mL, read-out: MIC Mtb H37Ra
[22] = CCM8077, 48 h, read-out: MIC LC
[23] = Mycolicibacterium aurum, pH 6; read-out: MIC M. aurum
[24] = Mycolicibacterium aurum, pH 6.6; read-out: MIC M. aurum
[25] = Mycolicibacterium smegmatis, pH 6; read-out: MIC M. smegmatis
[26] = Mycolicibacterium smegmatis, pH 6.6; read-out: MIC M. smegmatis
[27] = CCM8363, internal quality control, naked eye, no visible growth, 48 h (moulds), read-out: MIC, visual detection
[28] = internal quality control, 530 nm, inhibition of growth of 90%, 24 h (yeasts), read-out: MIC, spectrophotometric detection
[29] = internal quality control, naked eye, no visible growth, 24 h (yeasts), read-out: MIC, visual detection
[30] = ATCC204305, internal quality control, naked eye, no visible growth, 48 h (moulds), read-out: MIC, visual detection
[31] = internal quality control, naked eye, no visible growth, 48 h (moulds), read-out: MIC, visual detection
[32] = CCM8077, internal quality control, naked eye, no visible growth, 48 h (moulds), read-out: MIC, visual detection
[33] = 24 h, read-out: MIC, spectrophotometric detection

CNC(C)C1CCC(N)C(OC2C(N)CC(N)C(OC3OCC(C)(O)C(NC)C3O)C2O)O1 (stereo not drawn) [gentamicin, reference compound]
MIC ([1]; internal quality control, 530 nm, inhibition of growth of 95%, read-out: MIC, spectrophotometric detection): 0.125 mg/L | MIC ([1]; internal quality control, naked eye, no visible growth, read-out: MIC, visual detection): 0.125 mg/L | MIC ([2]; 24 h, read-out: MIC, visual detection): 0.5 mg/L (≈ 1.05 µM) | MIC ([2]; ATCC10031|CCM4415, 24 h, read-out: MIC, spectrophotometric detection): 0.5 mg/L (≈ 1.05 µM)

COC(=O)[C@@H](NC(=O)c1cnccn1)[C@@H](C)O [PC-L-Thr-Me, methyl (pyrazine-2-carbonyl)-L-threoninate]
MIC [3, 14]: > 500 µM | MIC [4, 15]: ≥ 500 µg/mL | MIC [4, 16]: ≥ 500 µg/mL | MIC ([5]; 24 h, read-out: MIC CA): > 500 µM | MIC [6, 17]: ≥ 500 µg/mL | MIC [6, 18]: ≥ 500 µg/mL | MIC ([7]; 24 h, read-out: MIC CT): > 500 µM | MIC [8, 19]: > 500 µM | MIC ([9]; pH 6): ≥ 500 mg/L | MIC ([9]; pH 6, read-out: MIC Mtb H37Ra): ≥ 500 mg/L | MIC [9, 20]: ≥ 500 mg/L | MIC [9, 21]: ≥ 2090 µM | MIC ([10]; 48 h, read-out: MIC TI): 500 µM | MIC ([11]; 24 h, read-out: MIC CK): > 500 µM | MIC ([12]; 24 h, read-out: MIC CP): > 500 µM | MIC ([1]; read-out: MIC SE): > 500 µM | MIC [13, 22]: > 500 µM | MIC KP [2]: > 500 µM

COC(=O)[C@H](NC(=O)c1cnccn1)C(C)C [PC-D-Val-Me, methyl (pyrazine-2-carbonyl)-D-valinate]
MIC [3, 14]: > 500 µM | MIC [4, 15]: ≥ 125 µg/mL | MIC [4, 16]: ≥ 500 µg/mL | MIC ([5]; 24 h, read-out: MIC CA): > 500 µM | MIC [6, 17]: ≥ 125 µg/mL | MIC [6, 18]: ≥ 500 µg/mL | MIC ([7]; 24 h, read-out: MIC CT): > 500 µM | MIC [8, 19]: > 500 µM | MIC ([9]; pH 6): ≥ 125 mg/L | MIC ([9]; pH 6, read-out: MIC Mtb H37Ra): ≥ 125 mg/L | MIC [9, 20]: ≥ 500 mg/L | MIC [9, 21]: ≥ 527 µM | MIC ([10]; 48 h, read-out: MIC TI): > 500 µM | MIC ([11]; 24 h, read-out: MIC CK): > 500 µM | MIC ([12]; 24 h, read-out: MIC CP): > 500 µM | MIC ([1]; read-out: MIC SE): > 500 µM | MIC [13, 22]: > 500 µM | MIC KP [2]: > 500 µM

CO[C@H]1/C=C/O[C@@]2(C)Oc3c(C)c(O)c4c(O)c(c(/C=N/N5CCN(C)CC5)c(O)c4c3C2=O)NC(=O)/C(C)=C\C=C\[C@H](C)[C@H](O)[C@@H](C)[C@@H](O)[C@@H](C)[C@H](OC(C)=O)[C@@H]1C [RIF, rifampicin, reference compound]
MIC [4, 23]: 0.39 to 1.56 µg/mL (≈ 0.474 to 1.9 µM) | MIC [4, 24]: 0.39 to 0.78 µg/mL (≈ 0.474 to 0.948 µM) | MIC [6, 25]: 6.25 to 12.5 µg/mL (≈ 7.59 to 15.2 µM) | MIC [6, 26]: 12.5 to 25 µg/mL (≈ 15.2 to 30.4 µM) | MIC ([9]; pH 6, read-out: MIC Mtb H37Ra): 0.0016 to 0.0062 mg/L | MIC [9, 20]: 0.0039 to 0.0078 mg/L | MIC [9, 21]: 0.0019 to 0.0075 µM

COC(=O)C(CC(C)C)NC(=O)c1cnc(Cl)cn1 (stereo not drawn)
MIC Mtb H37Ra ([9]; pH 6): 3.91 mg/L (≈ 13.7 µM) | MIC Mtb H37Ra ([9]; pH 6.6): 62.5 mg/L (≈ 219 µM)

C[C@@H]1[C@H](O)[C@@H](C)/C=C/C=C/C=C/C=C/C=C/C=C/C=C/[C@H](O[C@@H]2O[C@H](C)[C@@H](O)[C@H](N)[C@@H]2O)C[C@@H]2O[C@](O)(C[C@@H](O)C[C@@H](O)[C@H](O)CC[C@@H](O)C[C@@H](O)CC(=O)O[C@H]1C)C[C@H](O)[C@H]2C(=O)O [amphotericin B, reference compound]
MIC ([3]; CCM8363, internal quality control, 530 nm, inhibition of growth of 90%, 48 h (moulds), read-out: MIC, spectrophotometric detection): 4 mg/L | MIC [3, 27]: 4 mg/L | MIC [5, 28]: 0.5 mg/L | MIC [5, 29]: 0.5 mg/L | MIC [7, 28]: 1 mg/L | MIC [7, 29]: 1 mg/L | MIC ([8]; ATCC204305, internal quality control, 530 nm, inhibition of growth of 90%, 48 h (moulds), read-out: MIC, spectrophotometric detection): 1 mg/L | MIC [8, 30]: 1 mg/L | MIC ([10]; internal quality control, 530 nm, inhibition of growth of 90%, 48 h (moulds), read-out: MIC, spectrophotometric detection): 1 mg/L | MIC [10, 31]: 1 mg/L | MIC [11, 28]: 0.5 mg/L | MIC [11, 29]: 0.5 mg/L | MIC [12, 28]: 0.5 mg/L | MIC [12, 29]: 0.5 mg/L | MIC ([13]; CCM8077, internal quality control, 530 nm, inhibition of growth of 90%, 48 h (moulds), read-out: MIC, spectrophotometric detection): 0.125 mg/L | MIC [13, 32]: 0.125 mg/L

C[C@@H](c1ncncc1F)[C@](O)(Cn1cncn1)c1ccc(F)cc1F [voriconazole, reference compound]
MIC ([3]; CCM8363, 48 h, read-out: MIC, spectrophotometric detection): 1 mg/L | MIC [3, 27]: > 16 mg/L | MIC [5, 33]: 0.03 mg/L | MIC [5, 29]: > 16 mg/L | MIC [7, 33]: 0.0625 mg/L | MIC [7, 29]: > 16 mg/L | MIC ([8]; ATCC204305, 48 h, read-out: MIC, spectrophotometric detection): 0.25 mg/L | MIC [8, 30]: 1 mg/L | MIC ([10]; 48 h, read-out: MIC, spectrophotometric detection): > 16 mg/L | MIC [10, 31]: > 16 mg/L | MIC [11, 33]: 0.25 mg/L | MIC [11, 29]: > 16 mg/L | MIC [12, 33]: 0.03 mg/L | MIC [12, 29]: > 16 mg/L | MIC ([13]; CCM8077, 48 h, read-out: MIC, spectrophotometric detection): > 16 mg/L | MIC [13, 32]: > 16 mg/L

O=C(O)c1cn(C2CC2)c2cc(N3CCNCC3)c(F)cc2c1=O [CPX, ciprofloxacin, reference compound]
MIC [4, 23]: 0.0625 µg/mL (≈ 0.189 µM) | MIC [4, 24]: 0.0078 to 0.0156 µg/mL (≈ 0.0235 to 0.0471 µM) | MIC [6, 25]: 0.0625 to 0.25 µg/mL (≈ 0.189 to 0.754 µM) | MIC [6, 26]: 0.0625 to 0.125 µg/mL (≈ 0.189 to 0.377 µM) | MIC ([9]; pH 6, read-out: MIC Mtb H37Ra): 0.25 mg/L | MIC [9, 20]: 0.125 to 0.25 mg/L | MIC [9, 21]: 0.75 µM

O=C(N[C@@H](CSCc1ccccc1)C(=O)O)c1cnccn1 [PC-L-SBn-Cys, S-benzyL-N-(pyrazine-2-carbonyl)-L-cysteine]
MIC [3, 14]: > 250 µM | MIC [4, 15]: 125 µg/mL (≈ 394 µM) | MIC [4, 16]: ≥ 250 µg/mL | MIC ([5]; 24 h, read-out: MIC CA): > 250 µM | MIC [6, 17]: ≥ 250 µg/mL | MIC [6, 18]: ≥ 250 µg/mL | MIC ([7]; 24 h, read-out: MIC CT): > 250 µM | MIC [8, 19]: > 250 µM | MIC ([9]; pH 6): 62.5 mg/L | MIC ([9]; pH 6, read-out: MIC Mtb H37Ra): 62.5 mg/L | MIC [9, 20]: ≥ 250 mg/L | MIC [9, 21]: 197 µM | MIC ([10]; 48 h, read-out: MIC TI): > 250 µM | MIC ([11]; 24 h, read-out: MIC CK): > 250 µM | MIC ([12]; 24 h, read-out: MIC CP): > 250 µM | MIC ([1]; read-out: MIC SE): 250 µM | MIC [13, 22]: > 250 µM

Source: PMC7181131, “N-Pyrazinoyl Substituted Amino Acids as Potential Antimycobacterial Agents—the Synthesis and Biological Evaluation of Enantiomers” (Molecules, 2020)
